{"source": "ChEMBL document CHEMBL5113477", "about": "“Membrane acting Povarov-Doebner derived compounds potently disperse preformed multidrug resistant Gram-positive bacterial biofilms” (Eur J Med Chem, 2022)", "key": {"Staphylococcus aureus [1]": {"system": "Staphylococcus aureus", "assay": "Synergistic antibiofilm activity against methicillin-resistant Staphylococcus aureus USA 300 in TSB broth assessed as dispersal of glucose-induced biofilm at 1 ug/ml preincubated with glucose for 48 hrs followed by compound addition and further incubated for 24 hrs in presence of Nitroxoline by SEM analysis", "assay_type": "functional, organism-based", "conditions": "dose 1.0 µg/ml"}, "Staphylococcus aureus [2]": {"system": "Staphylococcus aureus", "assay": "Inhibition of DNA synthesis in Staphylococcus aureus ATCC 25923 at 0.25 to 8 ug/ml by [methyl]-thymidine incorporation assay", "assay_type": "functional, organism-based", "conditions": "dose 0.25-8 µg/ml"}, "Enterococcus faecalis [3]": {"system": "Enterococcus faecalis", "assay": "Antibiofilm activity against vancomycin-resistant Enterococcus faecalis ATCC 51575 in TSB broth assessed as dispersal of glucose-induced biofilm preincubated with glucose for 48 hrs followed by compound addition and measured after 24 hrs by crystal violet staining based analysis", "assay_type": "functional"}, "Staphylococcus aureus [4]": {"system": "Staphylococcus aureus", "assay": "Antibacterial activity against methicillin-resistant Staphylococcus aureus USA 300 (ARLG 1568) assessed as reduction in visible bacterial growth incubated for 18 to 20 hrs by CLSI based broth microdilution analysis", "assay_type": "functional", "conditions": "time 18-20 hrs"}, "Staphylococcus aureus [5]": {"system": "Staphylococcus aureus", "assay": "Antibacterial activity against methicillin-resistant Staphylococcus aureus USA 300 (ARLG 1569) assessed as reduction in visible bacterial growth incubated for 18 to 20 hrs by CLSI based broth microdilution analysis", "assay_type": "functional", "conditions": "time 18-20 hrs"}, "Staphylococcus aureus [6]": {"system": "Staphylococcus aureus", "assay": "Synergistic antibiofilm activity against methicillin-resistant Staphylococcus aureus USA 300 in TSB broth assessed as dispersal of glucose-induced biofilm by measuring Nitroxoline MBEC preincubated with glucose for 48 hrs followed by compound addition and measured after 24 hrs by crystal violet staining based checkerboard assay", "assay_type": "functional"}, "Enterococcus faecalis [7]": {"system": "Enterococcus faecalis", "assay": "Antibiofilm activity against vancomycin-resistant Enterococcus faecalis ATCC 51575 in TSB broth assessed as dispersal of glucose-induced biofilm at 8 to 16 ug/ml preincubated with glucose for 48 hrs followed by compound addition and measured after 24 hrs by crystal violet staining based analysis", "assay_type": "functional", "conditions": "dose 8-16 µg/ml, at 8 to 16 µg/mL"}, "Staphylococcus aureus [8]": {"system": "Staphylococcus aureus", "assay": "Synergistic antibiofilm activity against methicillin-resistant Staphylococcus aureus USA 300 in TSB broth assessed as dispersal of glucose-induced biofilm at 2 ug/ml preincubated with glucose for 48 hrs followed by compound addition and further incubated for 24 hrs in presence of 0.5 ug/ml Bithionol and AgNO3 by crystal violet staining based analysis", "assay_type": "functional", "conditions": "dose 2 µg/ml"}, "Staphylococcus aureus [9]": {"system": "Staphylococcus aureus", "assay": "Antibacterial activity against methicillin-resistant Staphylococcus aureus USA 300 (ARLG 1567) assessed as reduction in visible bacterial growth incubated for 18 to 20 hrs by CLSI based broth microdilution analysis", "assay_type": "functional", "conditions": "time 18-20 hrs"}, "Staphylococcus aureus [10]": {"system": "Staphylococcus aureus", "assay": "Synergistic antibiofilm activity against methicillin-resistant Staphylococcus aureus USA 300 in TSB broth assessed as dispersal of glucose-induced biofilm preincubated with glucose for 48 hrs followed by compound addition and further incubated for 24 hrs in presence of Bithionol by crystal violet staining based checkerboard assay", "assay_type": "functional"}, "Enterococcus faecium [11]": {"system": "Enterococcus faecium", "assay": "Synergistic antibiofilm activity against vancomycin-resistant Enterococcus faecium ATCC 700221 in TSB broth assessed as dispersal of glucose-induced biofilm by measuring Nitroxoline MBEC preincubated with glucose for 48 hrs followed by compound addition and measured after 24 hrs by crystal violet staining based checkerboard assay", "assay_type": "functional"}, "Enterococcus faecalis [12]": {"system": "Enterococcus faecalis", "assay": "Synergistic antibiofilm activity against vancomycin-resistant Enterococcus faecalis ATCC 51575 in TSB broth assessed as dispersal of glucose-induced biofilm by measuring fractional inhibitory concentration index preincubated with glucose for 48 hrs followed by compound addition and further incubated for 24 hrs in presence of Nitroxoline by crystal violet staining based checkerboard assay", "assay_type": "functional"}, "Staphylococcus aureus [13]": {"system": "Staphylococcus aureus", "assay": "Inhibition of biofilm formation in methicillin-resistant Staphylococcus aureus ATCC 33592 in TSB broth at 0.0078 to 4 ug/ml incubated for 48 hrs in presence of glucose by crystal violet staining based analysis", "assay_type": "functional, organism-based", "conditions": "dose 0.0078-4 µg/ml"}, "Enterococcus faecium [14]": {"system": "Enterococcus faecium", "assay": "Antibacterial activity against vancomycin-resistant Enterococcus faecium ATCC 700221 assessed as reduction in visible bacterial growth incubated for 18 to 20 hrs by CLSI based broth microdilution analysis", "assay_type": "functional", "conditions": "time 18-20 hrs"}, "Cell membrane": {"system": "Cell membrane", "assay": "Induction of membrane permeabilization in Staphylococcus aureus ATCC 25923 measured every 3 mins for 180 mins by sytox green dye based flow cytometry analysis", "assay_type": "subcellular", "conditions": "dose 0.5-4 µg/ml, DDE = dose-dependent effect"}, "Staphylococcus aureus [15]": {"system": "Staphylococcus aureus", "assay": "Synergistic antibiofilm activity against methicillin-resistant Staphylococcus aureus USA 300 in TSB broth assessed as dispersal of glucose-induced biofilm with distribution of ruptured bacteria components and debris at 4 ug/ml preincubated with glucose for 48 hrs followed by compound addition and further incubated for 24 hrs in presence of Bithionol by SEM analysis", "assay_type": "functional, organism-based", "conditions": "dose 4.0 µg/ml"}, "Staphylococcus aureus [16]": {"system": "Staphylococcus aureus", "assay": "Antibacterial activity against methicillin-resistant Staphylococcus aureus USA 300 (ARLG 1570) assessed as reduction in visible bacterial growth incubated for 18 to 20 hrs by CLSI based broth microdilution analysis", "assay_type": "functional", "conditions": "time 18-20 hrs"}, "Staphylococcus aureus [17]": {"system": "Staphylococcus aureus", "assay": "Antibacterial activity against methicillin-resistant Staphylococcus aureus USA 300 (ARLG 1644) assessed as reduction in visible bacterial growth incubated for 18 to 20 hrs by CLSI based broth microdilution analysis", "assay_type": "functional", "conditions": "time 18-20 hrs"}, "Staphylococcus aureus [18]": {"system": "Staphylococcus aureus", "assay": "Inhibition of cell wall synthesis in Staphylococcus aureus ATCC 25923 at 0.25 to 8 ug/ml by [glucosamine-6-3H]-N-acetyl-D-glucosamine incorporation assay", "assay_type": "functional, organism-based", "conditions": "dose 0.25-8 µg/ml"}, "Staphylococcus aureus [19]": {"system": "Staphylococcus aureus", "assay": "Bactericidal activity against persister methicillin-resistant Staphylococcus aureus USA 300 at 1 times MIC incubated for 2 to 8 hrs by time kill assay", "assay_type": "functional, organism-based", "conditions": "time 2-8 hrs"}, "Staphylococcus aureus [20]": {"system": "Staphylococcus aureus", "assay": "Bactericidal activity against persister methicillin-resistant Staphylococcus aureus ATCC 33592 at 1 times MIC incubated for 8 hrs by time kill assay", "assay_type": "functional"}, "Staphylococcus aureus [21]": {"system": "Staphylococcus aureus", "assay": "Inhibition of protein synthesis in Staphylococcus aureus ATCC 25923 at 0.25 to 8 ug/ml by [3H]-I-leucine incorporation assay", "assay_type": "functional", "conditions": "dose 0.25-8 µg/ml"}, "Staphylococcus aureus [22]": {"system": "Staphylococcus aureus", "assay": "Synergistic antibiofilm activity against methicillin-resistant Staphylococcus aureus USA 300 in TSB broth assessed as dispersal of glucose-induced biofilm by measuring fractional inhibitory concentration index preincubated with glucose for 48 hrs followed by compound addition and further incubated for 24 hrs in presence of Nitroxoline by crystal violet staining based checkerboard assay", "assay_type": "functional"}, "Listeria monocytogenes": {"system": "Listeria monocytogenes", "assay": "Antibacterial activity against Listeria monocytogenes ATCC 19115 assessed as reduction in visible bacterial growth incubated for 18 to 20 hrs by CLSI based broth microdilution analysis", "assay_type": "functional", "conditions": "time 18-20 hrs"}, "Staphylococcus aureus [23]": {"system": "Staphylococcus aureus", "assay": "Inhibition of biofilm formation in methicillin-resistant Staphylococcus aureus USA 300 in TSB broth at 0.0078 to 4 ug/ml incubated for 48 hrs in presence of glucose by crystal violet staining based analysis", "assay_type": "functional, organism-based", "conditions": "dose 0.0078-4 µg/ml"}, "Enterococcus faecium [24]": {"system": "Enterococcus faecium", "assay": "Synergistic antibiofilm activity against vancomycin-resistant Enterococcus faecium ATCC 700221 in TSB broth assessed as dispersal of glucose-induced biofilm […] preincubated with glucose for 48 hrs followed by compound addition and measured after 24 hrs by crystal violet staining based checkerboard assay", "assay_type": "functional"}, "Enterococcus faecalis [25]": {"system": "Enterococcus faecalis", "assay": "Synergistic antibiofilm activity against vancomycin-resistant Enterococcus faecalis ATCC 51575 in TSB broth assessed as dispersal of glucose-induced biofilm preincubated with glucose for 48 hrs followed by compound addition and further incubated for 24 hrs in presence of Nitroxoline by crystal violet staining based checkerboard assay", "assay_type": "functional"}}, "note": "The source made the active and inactive calls. No cut-off for these calls is given here."}
{"smiles": "Oc1ccc([C@@H]2Nc3ccc(S(F)(F)(F)(F)F)cc3[C@H]3[C@@H]4CC[C@@H](C4)[C@H]32)cc1", "values": [{"measurement": "Activity", "setting": "Staphylococcus aureus [1]", "result": "Active"}, {"measurement": "inhibition", "setting": "Staphylococcus aureus [2]", "result": "Active"}, {"measurement": "MBEC", "setting": "Enterococcus faecalis [3]", "result": 16, "unit": "µg/mL"}, {"measurement": "MBC", "setting": "Staphylococcus aureus [4]", "result": 2, "unit": "µg/mL"}, {"measurement": "MIC", "setting": "Staphylococcus aureus [4]", "result": 2, "unit": "µg/mL"}, {"measurement": "MBC", "setting": "Staphylococcus aureus [5]", "result": 2, "unit": "µg/mL"}, {"measurement": "MIC", "setting": "Staphylococcus aureus [5]", "result": 1, "unit": "µg/mL"}, {"measurement": "MBEC", "setting": "Staphylococcus aureus [6]", "result": 4, "unit": "µg/mL"}, {"measurement": "Activity", "setting": "Enterococcus faecalis [7]", "result": 70, "unit": "%"}, {"measurement": "Activity", "setting": "Staphylococcus aureus [8]", "result": ">80", "unit": "%"}, {"measurement": "MBC", "setting": "Staphylococcus aureus [9]", "result": 2, "unit": "µg/mL"}, {"measurement": "MIC", "setting": "Staphylococcus aureus [9]", "result": 2, "unit": "µg/mL"}, {"measurement": "MBEC", "setting": "Staphylococcus aureus [10]", "result": 4, "unit": "µg/mL"}, {"measurement": "MBEC", "setting": "Enterococcus faecium [11]", "result": 0.5, "unit": "µg/mL"}, {"measurement": "fractional inhibitory concentration index (FICI)", "setting": "Enterococcus faecalis [12]", "result": 0.38}, {"measurement": "inhibition", "setting": "Staphylococcus aureus [13]", "result": "Active"}, {"measurement": "MBC", "setting": "Enterococcus faecium [14]", "result": 2, "unit": "µg/mL"}, {"measurement": "MIC", "setting": "Enterococcus faecium [14]", "result": 2, "unit": "µg/mL"}, {"measurement": "Activity", "setting": "Cell membrane", "result": "Dde"}, {"measurement": "Activity", "setting": "Staphylococcus aureus [15]", "result": "Active"}, {"measurement": "MBC", "setting": "Staphylococcus aureus [16]", "result": 2, "unit": "µg/mL"}, {"measurement": "MIC", "setting": "Staphylococcus aureus [16]", "result": 1, "unit": "µg/mL"}, {"measurement": "MBC", "setting": "Staphylococcus aureus [17]", "result": 2, "unit": "µg/mL"}, {"measurement": "MIC", "setting": "Staphylococcus aureus [17]", "result": 1, "unit": "µg/mL"}, {"measurement": "inhibition", "setting": "Staphylococcus aureus [18]", "result": "Active"}, {"measurement": "Activity", "setting": "Staphylococcus aureus [19]", "result": "Active"}, {"measurement": "Activity", "setting": "Staphylococcus aureus [20]", "result": 100, "unit": "%"}, {"measurement": "inhibition", "setting": "Staphylococcus aureus [21]", "result": "Active"}, {"measurement": "fractional inhibitory concentration index (FICI)", "setting": "Staphylococcus aureus [22]", "result": 0.28}, {"measurement": "MIC", "setting": "Listeria monocytogenes", "result": 1, "unit": "µg/mL"}, {"measurement": "inhibition", "setting": "Staphylococcus aureus [23]", "result": "Active"}, {"measurement": "MBEC", "setting": "Enterococcus faecium [24]", "result": 2, "unit": "µg/mL"}, {"measurement": "MBEC", "setting": "Enterococcus faecalis [25]", "result": 4, "unit": "µg/mL"}]}
